# “Also recorded” adds a separate entry of the source. Like-named read-outs stand apart in the source and are kept apart here. No end group written: not given here.
# Experiments:
# [1] = ThT fluorescence kinetics of fibril/aggregate formation; type: physicochemical; settings: ThT 10 μM, mean of triplicate
# Procedure: Fibrils were detected by measuring the fluorescence intensity of Thioflavin T (ThT)[53]. A plate reader (Fluostar Optima, BMG LabTech, Ortenberg, Germany) and standard 96-wells flat-bottom black microtiter plates (Costar 3792, Sigma Aldrich, Saint-Louis, USA) were used in combination with excitation and emission filters, at 440 and 485 nm, respectively (ThT concentration: 10 μM). Peptide concentrations varied from 10 to 100 μM, at pH 3.4 (0.2 M glycine HCl in water), pH 7.4 (0.2 M KH2PO4 in water, 0.2 M K2HPO4, in water) and pH 9.1 (0.2 M glycine NaOH in water). The microtiter plate was shaken prior to measurements. Fluorescence intensity (arbitrary units, u.a.) was recorded every 10 min, during 40 h. Resulting curves were analyzed by using GraphPad Prism. Data are the means of experiments performed in triplicate.
# [2] = type: physicochemical; settings: for change of intensity of aliphatic proton signals (1H-NMR): 298 K, 65 h, 500 MHz
# Procedure: ERα17p fibrilization was followed at 298 K by using a NMR spectrometer (Bruker AVANCE III 500 MHz) equipped with a triple resonance (^1H, ^15 N, ^13C) cryoprobe. Each sample (100 μM) was prepared extemporaneously in appropriate buffer at pH 3.4, 7.4 and 9.1. A 10:90 D2O:H2O mixture was added to the buffer to reach a final D2O percentage of 7.5%. The final volume was of 520 μL in a 5 mm tube. 1D proton experiments (eight scans) were carried out over 65 h, with a total of 258 spectra (1 spectrum each 15 min, 8 scan/spectrum). Spectra analysis was carried out with the Bruker Topspin software by focusing between 0.80 and 3.60 ppm aliphatic side-chains region.
# [3] = Transmission electron microscopy of aggregates; type: physicochemical
# Procedure: Peptides were dissolved in appropriate buffer at pH 3.4, 7.4 and 9.1 to reach peptide stock solutions of 100 μM. Each peptide was incubated in an Eppendorf tube during 48 h. One drop (20 μL) of each peptide solution was adsorbed onto glow-discharged carbon coated 200 mesh copper grids. After 2 min, the grids were dried and negatively stained during 45 s with a 2.5% uranyl acetate solution. Grids were blotted, dried, and examined by using a Zeiss 912 Omega (Zeiss, Marly-le-Roi, France) […] or a JEOL 2100 HC (Croissy, France) […].
# [4] = tested on: GPER (WT) MDA-MB-231 cells; experiment: Cell growth by automated cell counting; type: cell-based, human; settings: WT MDA-MB-231, 72 h, increasing concentrations, 2.5% charcoal-stripped FBS, three independent experiments in triplicate
# Procedure: (§1) MCF-7 (ER + , PR + , […] , GPER +) and HS578T (ER-, PR-, Her2-, GPER +) cells were cultured in RPMI-1640 and DMEM medium (Life Technologies, Courtaboeuf, France), respectively, supplemented with 10% (v/v) fetal bovine serum (FBS), 100 U/mL penicillin and 100 µg/mL streptomycin. MDA-MB-231 triple negative breast cancer cells were obtained from the ATCC (Manassas, VA, USA). Cells were maintained in DMEM/F12 (Dulbecco’s modified Eagle’s medium) with phenol red, supplemented with 5% fetal bovine serum (FBS) and 1% penicillin/streptomycin (Thermo Fisher Scientific, Monza, Italy). Cells were grown in a 37 °C incubator with 5% CO2.
# (§2) Short guide RNA (sgRNA) sequence targeting human GPER was designed using the E-CRISP sgRNA Designer (http://www.e-crisp.org/E-CRISP/) and was cloned into the pSpCas9 (BB)-2A-Puro (PX459) plasmid, as previously described. The GPER sgRNA sequence used to generate the GPER knockout is as followed: sgGPER: 5′-[…]-3′. Next, the vector with sgRNA was transiently transfected into MDA-MB-231 cells using Lipofectamine LTX (Life Technologies, Milan Italy). […]
# (§3) MDA-MB-231 WT and GPER KO cells were seeded in 24-well plates in regular growth medium. […] Cells were counted on day 4 using an automated cell counter (Life Technologies, Milan, Italy), following the manufacturer’s recommendations.
# [5] = tested on: GPER knockout (KO) MDA-MB-231 cells; experiment: Cell growth by automated cell counting; type: cell-based, human; settings: GPER KO MDA-MB-231, 72 h, increasing concentrations, 2.5% charcoal-stripped FBS, three independent experiments in triplicate
# Procedure: as §1, §2, §3
# [6] = tested on: tactile hypersensitivity in the murine CFA model; experiment: von Frey test in Complete Freund's Adjuvant (CFA) inflammatory pain model; type: in vivo, C57BL/6j mice; settings: for 50% paw withdrawal threshold (PWT): seven days after CFA, mean ± SEM, n = 8 mice
# Procedure: Experiments were performed according to ethical guidelines established by the International Association for the Study of Pain (IASP) and the relevant European legislation (Directive 2010/63/EU). They were also approved by the Auvergne Animal Experiment Ethics Committee, CE2A and the French Ministry of Higher Education and Innovation. Eight-week-old male C57BL/6j mice were purchased from Janvier Laboratories (Le Genest-Saint-Isle, France), housed under standard laboratory conditions (12 h light/dark cycle, temperature of 21 to 22 °C, 55% humidity under specific pathogen free conditions) and acclimatized for a week before testing. Food and water were available ad libitum.
# Design, analysis and reporting were carried out in accordance with the ARRIVE guidelines[56]–[58]. To ensure the methodological quality of the study, Rice et al. recommendations were followed. Animals were randomly divided into eight mice per group. To assess different treatment effects over the same time interval and to avoid, thereby, unverifiable and time-variable environmental influence, treatments were administered following the method of equal blocks. All experiments were performed in a quiet room by the same blinded experimenter. ERα17p and PLMI peptides were dissolved in a saline solution prior to intraperitoneal administration (10 mL/kg).
# A persistent inflammatory pain model was produced by injection under brief anesthesia (2.5% isoflurane inhalation) of Complete Freund's Adjuvant (CFA, 10 µL) on the left ankle joint of mice[60]. CFA consisted of Mycobacterium butyricum (Difco Laboratories, Detroit, USA) dissolved in paraffin oil and saline (0.9% NaCl). The solution was autoclaved 20 min at 120 °C. Behavior tests were performed before and seven days after CFA injection.
# On behavior testing day, the mice were placed individually in Plexiglas compartments (8 cm (L) × 3.5 cm (W) × 8 cm (D)) and on an elevated wire mesh platform to allow access to the ventral surface of the hindpaws, and were allowed to acclimatize for one hour before testing. Von Frey filaments (0.02 to 1.4 g) were applied perpendicularly to the plantar surface of the paw. Paw withdrawal and licking were considered as positive responses. 50% paw withdrawal threshold (PWT) was determined using an adaptation of the Dixon up–down method, as described previously.
# All data were analyzed using the Prism 8 software (GraphPad™ Software Inc., San Diego, CA). Data were tested for normality (Shapiro–Wilk test) and equal variance (Fisher test). For kinetic data, multiple measurements were compared with repeated measures (two-way ANOVA). Post hoc comparisons were performed by the Tukey’s test. […] AUC was expressed as mean ± SEM (g × min). […]
# GPER = settings: binding within the ligand-binding site of GPER; cited from earlier work
# Procedure: In physiological conditions (complete serum) and at the concentration of 10 μM, ERα17p triggers membrane-initiated pro-apoptotic events, in both ERα-positive and -negative breast cancer cell lines with, however, a preference for ERα-positive cancer cells. It decreases the ratio Bcl-xl/Bax, increases cleaved caspase-9 and induces a redistribution of actin through a mechanism requiring PI3K, ROCK and p38 MAPK, depending on cell line[21],[22]. Moreover, ERα17p induces a proteasome-dependent decrease of the levels of the G protein-coupled estrogen receptor (GPER), of activated EGFR and ERK1/2 ...
# [7] = tested on: xenografted triple negative breast tumors; settings: 1.5 mg/kg body weight, three times a week for four weeks, mice; cited from earlier work
# inflammation and pain = settings: cited from earlier work
# [8] = cited from earlier work
# Source text: Then, we have explored the biological effects of the peptide 2, not only on cell survival (in vitro study) but also in pain (in vivo study). […] Our approach consisting in designing a minimalist active ERα17p-derived peptide, the pharmacologically inert KRSKK motif was excluded from our study. […] Regarding phenotypes, a GPER-dependent ...
# [9] = Circular dichroism of the soluble peptide pool over time; type: physicochemical; settings: pH 9.1, peptide 100 μM, 25 °C, between 5 and 22 h
# Procedure: CD spectra were recorded on a Jasco J-815 apparatus (Lisses, France) using quartz cells (0.1 cm path length, Hellma GmbH, Müllheim, Germany). Each peptide was dissolved (final concentration: 100 μM) in appropriate buffer solution, at pH 9.1. After an equilibration period of 5 min at 25 °C, CD spectra were recorded over the 190 to 260 nm wavelength range. Measurements were carried out at 1 nm intervals. Data points were acquired every 0.5 nm in continuous scanning mode (speed = 20 nm.min^−1, bandwidth = 1 nm). CD spectra were recorded after 0, 5, 22 and 28 h (unit: mean residue ellipticity [θ]MRE, in deg.cm^2.dmol^−1). Acquisitions were carried out using the software Spectra Manager. Recorded data (mean of five scans) were treated with GraphPad Prism. Buffer background was subtracted to avoid buffer and cell contributions.
# [10] = Solubility as observed when preparing biological assays; settings: culture media; reason for exclusion from biological assays
# [11] = pH 9.1 (glycine NaOH 0.2 M in water), peptide 100 μM, 48 h incubation
molecule,measurement,setting,value
PLMIKRSKKNSLALSLT [ERα17p],formation of aggregates (ThT fluorescence),"[1]; pH 3.4 (0.2 M glycine HCl in water), peptide 10-100 μM, 40 h, ex 440/em 485 nm",No aggregation
same,formation of aggregates (ThT fluorescence),"[1]; pH 7.4 (0.2 M KH2PO4/0.2 M K2HPO4 in water), peptide 50 and 100 μM, 40 h",exponential time-dependent increase of the formation of aggregates
same,delay before formation of aggregates (ThT fluorescence),"[1]; pH 9.1 (0.2 M glycine NaOH in water), peptide 10 and 25 μM",18 h
same,formation of aggregates (ThT fluorescence),"[1]; pH 9.1 (0.2 M glycine NaOH in water), peptide 50 and 100 μM, 40 h",exponential time-dependent increase of the formation of aggregates
same,change of intensity of aliphatic proton signals (1H-NMR),"[2]; pH 3.4, peptide 100 μM",No significant change
same,total amount of peptide remaining soluble (1H-NMR),[2]; pH 7.4,about 40%
same,change of intensity of aliphatic proton signals (1H-NMR),"[2]; pH 9.1, peptide 100 μM",decay of the proton signals followed by a plateau
same,aggregates seen by TEM,"[3]; pH 3.4, peptide 100 μM, 48 h incubation",no aggregate was detected
same,morphology of aggregates by TEM,"[3]; pH 7.4, peptide 100 μM, 48 h incubation",granulations resembling to a dense network of prefibrillar amyloid oligomers
same,morphology of aggregates by TEM,"[3]; pH 9.1, peptide 100 μM",entanglement network of mature amyloid fibrils
same,length of amyloid fibrils (TEM),"[3]; pH 9.1, peptide 100 μM, 48 h incubation",> 1 μm
same,effect on cell viability,[4],able to reduce the viability
same,effect on cell viability,[5],inactive
same,50% paw withdrawal threshold (PWT),"[6]; 1.25 mg/kg i.p., 45 min",0.141 ± 0.025 g
same,50% paw withdrawal threshold (PWT),"[6]; 2.5 mg/kg i.p., 45 min",0.293 ± 0.055 g
same,calculated EC50 of anti-hyperalgesic action,"[6]; from AUC (0-180 min) of PWT variations, i.p., CFA model, von Frey test",3.7 ± 1.9 mg/kg
same,Kd,GPER,micromolar range
same,decrease of the size of xenografted triple negative breast tumors,[7],about 50%
same,dose from which anti-inflammatory and analgesic actions are supported,inflammation and pain,≥ 2.5 mg/kg
same,cellular internalization,[8],poorly internalized
"CN1CC[C@]23c4c5ccc(O)c4O[C@H]2[C@@H](O)C=C[C@H]3[C@H]1C5 [morphine, reference compound]",50% paw withdrawal threshold (PWT),"[6]; 1 mg/kg, positive control, time not stated",0.672 ± 0.041 g
NSLALSLT [peptide 1],"formation of aggregates (ThT fluorescence), fragments","[1]; pH 9.1 (glycine NaOH 0.2 M), peptide 100 μM, 40 h, ERα17p as reference",exponential increase of the fluorescence signal
same,length of stacked fibrils (TEM),[3]; [11],1.5 μm
same,thickness of stacked fibrils (TEM),[3]; [11],20 nm
same,decrease of the soluble pool (CD),[9],70%
same,solubility for biological assays,[10],insufficiently soluble; also recorded: poor solubility

# — paper PMC9873809, “Identification of a human estrogen receptor α tetrapeptidic fragment with dual antiproliferative and anti-nociceptive action” (Scientific Reports, 2023)
